Measured values from publication PMC9674596, “Origin of acetylcholine antagonism in ELIC, a bacterial pentameric ligand-gated ion channel” (Communications Biology, 2022).

Key:
Format in all cases: cell-based, Erwinia chrysanthemi
ELIC A75D = target: T1, ELIC A75D (Dickeya chrysanthemi, UniProt P0C7B7, A75D/INS163G); assay: Two-electrode voltage clamp, A75D mutant ELIC expressed in Xenopus laevis oocytes
T1 construct: expressed in transfected cells; host or cells: Xenopus laevis oocytes injected with cRNA from ELIC-pTLN

wild-type ELIC = target: T2, wild-type ELIC (Dickeya chrysanthemi, UniProt P0C7B7, INS163G); assay: Two-electrode voltage clamp, whole-cell currents of wild-type ELIC expressed in Xenopus laevis oocytes; conditions: for IC50: ACh IC50, WT ELIC
T2 construct: expressed in transfected cells; host or cells: Xenopus laevis oocytes injected with cRNA from ELIC-pTLN
Experimental: (§1) Stage V-VI Xenopus laevis oocytes were isolated[72] and deflocculated enzymatically in ND96 buffer without Ca^2+ (96 mM NaCl, 2 mM KCl, 1 mM MgCl2, 2 mM pyruvate, 5 mM HEPES, pH 7.4), but supplemented with 1 mg/mL collagenase B and 1 mg/mL trypsin inhibitor, for 2 h at room temperature under constant stirring. The deflocculation buffer was then gradually removed by washing the oocytes in ND96 buffer (96 mM NaCl, 2 mM KCl, 1 mM MgCl2, 1 mM CaCl2, 2 mM pyruvate, 5 mM HEPES, pH 7.4) for several iterations. The oocytes were then allowed to stir for an additional hour at room temperature under constant stirring with the buffer being periodically replaced until clear. To obtain optimal receptor expression, individually selected and healthy oocytes were injected with 0.2 ng cRNA for wild-type ELIC and 5 ng cRNA for mutants. Subsequently, oocytes were incubated for one day at 16 °C in ND96^+ buffer (96 mM NaCl, 2 mM KCl, 1 mM MgCl2, 1 mM CaCl2, 2 mM pyruvate, and 5 mM HEPES at pH 7.6). After expression, injected oocytes were placed in a RC-1Z oocyte chamber (Harvard Apparatus; Hamden, CT) containing buffer (pH 7.4) composed of 150 mM NaCl, 0.5 mM BaCl2, 10 mM HEPES, and 1 mM dithiothreitol or 1 µM atropine if cysteamine, or ACh, was used in the experiment, respectively. The presence of the reducing agent, dithiothreitol, ensures that the sulfhydryl group of cysteamine remains reduced.
(§2) Once in the oocyte chamber, whole-cell currents were recorded using a two-electrode voltage-clamp apparatus (OC-725C oocyte clamp; Harvard Apparatus), with a buffer flow rate of 5–10 mL min^−1. Currents in response to various additions of cysteamine and/or ACh, were measured with the transmembrane voltage clamped at −60 mV. Dose response curves for each wild-type and mutant ELIC were acquired from at least five oocytes in two different batches. […]

ELIC Y38W = ELIC Y38W (Dickeya chrysanthemi, UniProt P0C7B7, Y38W); assay: Two-electrode voltage clamp, Y38W mutant ELIC expressed in Xenopus laevis oocytes
Experimental: as §1, with “After expression, injected oocytes were placed in a RC-1Z oocyte chamber (Harvard Apparatus; Hamden, CT) containing buffer (pH 7.4) composed of 150 mM NaCl, 0.5 mM BaCl2, 10 mM HEPES, and 1 mM dithiothreitol or 1 µM atropine if cysteamine, or ACh, was used in the experiment, respectively. The presence of the reducing agent, dithiothreitol, ensures that the sulfhydryl group of cysteamine remains reduced.” left out
as §2, with “mV.” for “mV. Dose response curves for each wild-type and mutant ELIC were acquired from at least five oocytes in two different batches.”

ELIC F133W = ELIC F133W (Dickeya chrysanthemi, UniProt P0C7B7, F133W); assay: cell-based
Experimental: as §1, with “After expression, injected oocytes were placed in a RC-1Z oocyte chamber (Harvard Apparatus; Hamden, CT) containing buffer (pH 7.4) composed of 150 mM NaCl, 0.5 mM BaCl2, 10 mM HEPES, and 1 mM dithiothreitol or 1 µM atropine if cysteamine, or ACh, was used in the experiment, respectively. The presence of the reducing agent, dithiothreitol, ensures that the sulfhydryl group of cysteamine remains reduced.” left out
as §2, with “mV.” for “mV. Dose response curves for each wild-type and mutant ELIC were acquired from at least five oocytes in two different batches.”

Compound | IC50 (ELIC A75D) [µM] | IC50 (wild-type ELIC; inhibition of GABA-activated current, GABA at its EC50 (2.7 mM)) [µM] | IC50 (wild-type ELIC; inhibition of cysteamine-activated current, cysteamine at its EC50 (0.6 mM)) [µM] | IC50 (ELIC Y38W) [µM] | IC50 (ELIC F133W) [µM] | EC50 (wild-type ELIC) [µM]
CC(=O)OCC[N+](C)(C)C [ACh, acetylcholine] | 7000 ± 2000 | 1100 ± 200 | 1000 ± 200 | 400 ± 100 | 8000 ± 2000 | 
NCCCC(=O)O [GABA, γ-aminobutyric acid] |  |  |  |  |  | 2700 ± 300
